One experiment is described as follows: ABTS radical scavenging. The following applies: 30 °C, 30 min; positive control = Trolox. The method, then: The ABTS assay of RFCS was performed according to a modified version of a previously reported method. Briefly, the stock solutions were generated by mixing equal quantities of 7.4 mM ABTS^●+ solution and 2.6 mM potassium persulfate solution, and the mixture was incubated at room temperature for 12 h in the dark. Then, the solution was equilibrated with 1 mL of ABTS^●+ solution with 50% ethanol serving as a positive control. The absorbance of the solution at 734 nm was 1.17 ± 0.02 units. […] The mixture was mixed vigorously and incubated at 30 °C for 30 min. The absorbance was then measured at […] using the spectrophotometer. […] Inhibition%=Absorbance of blank-Absorbance of sample/Absorbance of blank×100

For a further experiment, the target named is mushroom tyrosinase. Briefly: Tyrosinase inhibitory activity (spectrophotometric, DOPA substrate). It is filed as biochemical. Particulars: pH 6.8, 37 °C, 15 min, positive control = kojic acid. The method, then: The reaction mixture was vortexed and maintained at 37 °C for 15 min, and then the absorption maximum of dopachrome (set at 479 nm) was measured using a microplate reader (Molecular Devices, Sunnyvale, California, USA). The tests were performed in triplicate, and the value of tyrosinase inhibition activity was calculated as described above.

Experiment [1] relates to candida albicans (ATCC 10231). Briefly: MIC and MFC, broth microdilution. It is filed as cell-based. Particulars: Candida albicans, ATCC10231, C. albicans; for MIC: 37 °C, 24 h, read-out: MIC; for MFC: read-out: MFC. How it is done: (§1) The antimicrobial activity was measured by the method described by Xue. All standard strains were obtained from the Guangdong Microbiology Culture Center (Guangzhou, China). Listeria ivanovii (ATCC 19119) was cultured in BHI, Salmonella enteritidis enteritidis (ATCC 14028) Staphylococcus aureus (ATCC 25923) and Escherichia coli (ATCC 25922) were cultured in nutrient agar (NA) for 24 h and at 37 °C. candida albicans (ATCC 10231) was cultured in PHB at 37 °C for 24 h. Propionibacterium acnes (ATCC 6919) and Fusobacterium nucleatum (ATCC 10953) were cultured in CDC agar at 37 °C for 48 h in a YQX-II anaerobic incubator (Shanghai, China). The final cell counts in l mL of broth were approximately 10^6 colony-forming units (CFU/mL). A 10 mg/mL solution of miconazole nitrate and hydrochloride tetracycline in water was used as a positive control against fungi and bacteria, respectly.
(§2) The MIC and MBC or MFC values were determined as described previously by Xue. Briefly, 100 μL dilutions (approximately 100,000 CFU/mL) of Staphylococcus aureus, Escherichia coli, Salmonella enteritidis enteritidis, Fusobacterium nucleatum, and Candida albicans in nutrient broth and Listeria ivanovii and Propionibacterium acnes in GMA broth were inoculated into microtiter plates. Then, 100 μL aliquots of the solutions of the test compound were added after a two-fold serial dilution with nutrient broth (from 2 mg/mL to 3 μg/mL). Broths with 5% (v/v) DMSO were used as controls. The petri dishes were incubated at 37 °C for 24 h with the exception of Propionibacterium acnes and Fusobacterium nucleatum, which were incubated at 37 °C for 48 h. The MIC was recorded as the lowest concentration of sample showing no detectable growth. To determine the MBC or MFC values for no bacterial or fungus growth, 10 μL of sub-inhibitory concentrations of the test compounds were incubated on CDC or GMA agar plates for 24 or 48 h. Every determination was carried out in triplicate.

The subject of experiment [2] is Fusobacterium nucleatum (ATCC 10953). Nature of the experiment: MIC and MBC, broth microdilution. The class given is cell-based. Particulars: Fusobacterium nucleatum, ATCC10953, F. nucleatum; for MIC: anaerobic, 37 °C, 48 h, read-out: MIC; for MBC: read-out: MBC. How it is done: as §1, §2
Experiment [3] relates to Escherichia coli (ATCC 25922). Nature of the experiment: MIC and MBC, broth microdilution. The class given is cell-based. The following applies: Escherichia coli, ATCC25922, E. coli; for MIC: 37 °C, 24 h, read-out: MIC; for MBC: read-out: MBC. The method, then:
as §1, §2

The test system of experiment [4] is Listeria ivanovii (ATCC 19119). Nature of the experiment: MIC and MBC, broth microdilution. The class given is cell-based. Particulars: Listeria ivanovii, ATCC19119, L. ivanovii; for MIC: 37 °C, 24 h, read-out: MIC; for MBC: read-out: MBC. How it is done: as §1, §2
The subject of experiment [5] is Salmonella enteritidis enteritidis (ATCC 14028). Nature of the experiment: MIC and MBC, broth microdilution. It is filed as cell-based. The following applies: Salmonella enterica, S. enteritidis enteritidis; for MIC: 37 °C, 24 h, read-out: MIC; for MBC: read-out: MBC. How it is done:
as §1, §2

Experiment [6] has as its system Propionibacterium acnes (ATCC 6919). Nature of the experiment: MIC and MBC, broth microdilution. The class given is cell-based. Particulars: Cutibacterium acnes, ATCC6919, P. acnes; for MIC: anaerobic, 37 °C, 48 h, read-out: MIC; for MBC: read-out: MBC. The method, then: as §1, §2
Experiment [7] concerns Staphylococcus aureus (ATCC 25923). Briefly: MIC and MBC, broth microdilution. It is filed as cell-based. Particulars: Staphylococcus aureus, ATCC25923, S. aureus; for MIC: 37 °C, 24 h, read-out: MIC; for MBC: read-out: MBC. How it is done: as §1, §2
The nature of experiment [8]: DPPH radical scavenging activity. Particulars: 30 min in the dark, 517 nm; positive control = ascorbic acid. How it is done: The antioxidant activity of RFCS and the standards were evaluated by DPPH radical scavenging activity using a slightly modified version of a previously reported method. […] Aliquots (100 μL) of the supernatants were transferred into a 96-well microplate, and the absorbance of each was recorded at 517 nm using a Spectramax Plus384 UV-Vis spectrophotometer (Molecular Devices, Sunnyvale, California, USA). […] The IC50 values, which represent the concentrations of rose samples and standard substance at which 50% of the DPPH radical was inhibited, were determined. The tests were performed in triplicate, and the percentage of DPPH scavenging was calculated using the following equation. Inhibition%=H0-H/H0×100 H:Absorbance of RFCS and the standards;H0:Absorbance of the blank

Converted amounts (≈) assume the structure as drawn. A value given as a limit tells only on which side of the number the result lay.

Consider `OCCc1ccccc1` [Phenylethyl alcohol], for which the “ABTS radical scavenging activity IC50” value in “ABTS radical scavenging” is given as > 10,000 a μg/mL. Further, on mushroom tyrosinase, the “Tyrosinase inhibition IC50” value is 315 ± 13 b μg/mL. In addition, the MIC in experiment [1] is 250 µg/mL (≈ 2050 µM); in experiment [2], 8 µg/mL (≈ 65.5 µM); in [3] it was 250 µg/mL (≈ 2050 µM); in [4], 250 µg/mL (≈ 2050 µM); in experiment [5], 125 µg/mL (≈ 1020 µM); in experiment [6] it was 125 µg/mL (≈ 1020 µM). Also, the minimum inhibitory concentration (MIC) in experiment [7] came out at 125 µg/mL (≈ 1020 µM). Moreover, in [1], the minimal fungicidal concentration (MFC) turned out to be 500 µg/mL (≈ 4090 µM). The MBC in [2] was 32 µg/mL (≈ 262 µM); in experiment [3], 1000 µg/mL (≈ 8190 µM); in experiment [4], 500 µg/mL (≈ 4090 µM); in [5], 500 µg/mL (≈ 4090 µM); in [6], 500 µg/mL (≈ 4090 µM); in [7] it was 250 µg/mL (≈ 2050 µM). Further, the “DPPH radical scavenging activity IC50” value in experiment [8] was > 10,000 a μg/mL.
In the case of `C[C@@H]1O[C@@H](OC[C@H]2O[C@@H](Oc3c(-c4ccc(O)c(O)c4)oc4cc(O)cc(O)c4c3=O)[C@H](O)[C@@H](O)[C@@H]2O)[C@H](O)[C@H](O)[C@H]1O` [Rutin], in “ABTS radical scavenging”, the “ABTS radical scavenging activity IC50” value came to 0.621 ± 0.024 c μg/mL. Moreover, the Tyrosinase inhibition IC50 at mushroom tyrosinase was 0.856 ± 0.014 µg/mL; at mushroom tyrosinase (listed as rutin), less than 1 µg/mL. The minimum inhibitory concentration (MIC) was 500 µg/mL (≈ 819 µM) in [1]; 62 µg/mL (≈ 102 µM) in [2]; 250 µg/mL (≈ 409 µM) in [3]; 500 µg/mL (≈ 819 µM) in experiment [4]; 125 µg/mL (≈ 205 µM) in experiment [5]; 125 µg/mL (≈ 205 µM) in [6]. Besides, in [7], the minimal inhibitory concentration (MIC) was 250 µg/mL (≈ 409 µM). Besides, in experiment [1], the minimum fungicidal concentration (MFC) stood at 1000 µg/mL (≈ 1640 µM). The minimal bactericidal concentration (MBC) in experiment [2] came out at 500 µg/mL (≈ 819 µM); in [3], 1000 µg/mL (≈ 1640 µM); in [4], 1000 µg/mL (≈ 1640 µM); in experiment [5], 500 µg/mL (≈ 819 µM); in experiment [6], 250 µg/mL (≈ 409 µM); in experiment [7] it was 500 µg/mL (≈ 819 µM). The “DPPH radical scavenging activity IC50” value in experiment [8] is on record as 0.715 ± 0.017 c μg/mL.

These data come from paper PMC6247689, “Determination of the volatile and polyphenol constituents and the antimicrobial, antioxidant, and tyrosinase inhibitory activities of the bioactive compounds from the by-product of Rosa rugosa Thunb. var. plena Regal tea” (BMC Complementary and Alternative Medicine, 2018).
